What was measured:
[1] = Concentration required for 50% growth inhibition of primary malignant melanoma C8146A cell lines; assay type: functional, cell-based
Protein S100-B = target: T1, Protein S100-B (Homo sapiens, UniProt P04271); assay: Binding to holo-S100B protein
T1 sequence (P04271 whole entry): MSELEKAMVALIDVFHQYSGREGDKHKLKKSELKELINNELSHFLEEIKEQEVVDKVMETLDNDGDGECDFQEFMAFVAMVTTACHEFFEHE

Row | Kd (Protein S100-B) | SMILES | IC50 [1]
1 | 2 µM | N=C(N)NC(=N)Nc1cccc(Cl)c1Cl | 8 µM
2 | 120 µM | Cc1cc(C)c(N2C(=O)c3ccc(C(=O)Nc4cc(C(=O)O)cc(C(=O)O)c4)cc3C2=O)c(C)c1 | 44 µM
3 | 4.5 µM | N=C(N)NC(=N)Nc1ccc(Cl)cc1C(=O)c1ccccc1 | 12 µM
4 | 8.1 µM | CC(C)(C)NC(=O)c1cccc(N2C(=O)c3ccc(C(=O)O)cc3C2=O)c1 | > 100 µM
5 | 18.3 µM | O=C(O)c1cc(N/N=C/c2ccc(-c3ccc(Cl)c(C(=O)O)c3)o2)ccc1Cl | 49 µM
6 | 4.5 µM | Cc1c(NS(=O)(=O)c2ccc(NC(=O)CCC(=O)O)cc2)c(=O)n(-c2ccccc2)n1C | > 100 µM
7 | 1 µM | N=C(N)c1ccc(OCCCCCOc2ccc(C(=N)N)cc2)cc1 [PENTAMIDINE] | 1.2 µM

Source: ChEMBL document CHEMBL1138776, “Identification and characterization of small molecule inhibitors of the calcium-dependent S100B-p53 tumor suppressor interaction” (J Med Chem, 2004)
